pIC50: −log10 of the molar value.
Experiments:
HCT-116 = assay: Inhibitory concentration against human HCT116 colon cancer cell line; format: functional, cell-based
Bel-7402 = assay: Inhibitory concentration against human Bel-7402 liver cancer cell line; format: functional, cell-based
Mus musculus [1] = assay: Percent change in body-weight of mouse tumor sarcoma-180 model after intraperitoneal administration of 5 mg/kg dose; format: functional
[2] = Lethal toxicity against mouse tumor sarcoma-180 model after intraperitoneal administration of 5 mg/kg dose expressed as number of deaths out of 10 mice; format: organism-based; parameters: dose 5 mg/kg, route intraperitoneal; settings: in vivo, ip
Mus musculus [3] = assay: Percent tumor-weight inhibition in mouse tumor sarcoma-180 model after intraperitoneal administration of 5 mg/kg dose in comparison with control mice; format: functional
Mus musculus [4] = assay: Average tumor weight in mouse tumor sarcoma-180 model after intraperitoneal administration of 5 mg/kg dose; format: functional
[5] = Lethal toxicity against mouse tumor sarcoma-180 model after intraperitoneal administration of 75 mg/kg dose expressed as number of deaths out of […]; format: organism-based; parameters: dose 75 mg/kg, route intraperitoneal; settings: in vivo, ip
Mus musculus [6] = assay: Average tumor weight in mouse tumor sarcoma-180 model after intraperitoneal administration of 75 mg/kg dose; format: functional
Mus musculus [7] = assay: Percent change in body-weight of mouse tumor sarcoma-180 model after intraperitoneal administration of 75 mg/kg dose; format: functional
Mus musculus [8] = assay: Percent tumor-weight inhibition in mouse tumor sarcoma-180 model after intraperitoneal administration of 75 mg/kg dose in comparison with control mice; format: functional
Mus musculus [9] = assay: Percent tumor-weight inhibition in mouse tumor sarcoma-180 model after intraperitoneal administration of 2.5 mg/kg dose in comparison with control mice; format: functional
Mus musculus [10] = assay: Percent change in body-weight of mouse tumor sarcoma-180 model after intraperitoneal administration of 2.5 mg/kg dose; format: functional
Mus musculus [11] = assay: Average tumor weight in mouse tumor sarcoma-180 model after intraperitoneal administration of 2.5 mg/kg dose; format: functional
[12] = Lethal toxicity against mouse tumor sarcoma-180 model after intraperitoneal administration of 2.5 mg/kg dose expressed as number of deaths out of 10 mice; format: organism-based; parameters: dose 2.5 mg/kg, route intraperitoneal; settings: in vivo, ip

SMILES | pIC50 (HCT-116) | pIC50 (Bel-7402) | other results
CCCc1c(OC)ccc2nc3c(c(CC)c12)Cn1c-3cc2c(c1=O)COC(=O)[C@]2(O)CC | 6.82 | 5.42 | 
C=CCc1c(OC)ccc2nc3c(c(CC)c12)Cn1c-3cc2c(c1=O)COC(=O)[C@]2(O)CC | 7.17 | 5.67 | 
CCc1c2c(nc3ccc(O)cc13)-c1cc3c(c(=O)n1C2)COC(=O)[C@]3(O)CC [7-ETHYL-10-HYDROXYCAMPTOTHECIN] | 8.15 | 5.50 | BWC (Mus musculus [1]): 45%; Lethal toxicity [2]: 0; TWI (Mus musculus [3]): 41.5%; TW (Mus musculus [4]): 1.93
CCCc1c(O)ccc2nc3c(c(CC)c12)Cn1c-3cc2c(c1=O)COC(=O)[C@]2(O)CC | 7.92 | 5.52 | 
CCc1c(O)ccc2nc3c(c(CC)c12)Cn1c-3cc2c(c1=O)COC(=O)[C@]2(O)CC | 7.64 | 5.70 | 
CCc1c(OC)ccc2nc3c(c(CC)c12)Cn1c-3cc2c(c1=O)COC(=O)[C@]2(O)CC | 7.21 | 5.62 | 
O=c1[nH]cc(F)c(=O)[nH]1 [FLUOROURACIL] |  |  | Lethal toxicity [5]: 0; TW (Mus musculus [6]): 1.52; BWC (Mus musculus [7]): 74%; TWI (Mus musculus [8]): 53.9%
CC[C@@]1(O)C(=O)OCc2c1cc1n(c2=O)Cc2cc3cc(O)ccc3nc2-1 [HYDROXYCAMPTOTHECIN] | 6.83 | 5.61 | 
CC[C@@]1(O)C(=O)OCc2c1cc1n(c2=O)Cc2cc3c(CN(C)C)c(O)ccc3nc2-1 [TOPOTECAN] | 7.00 | 5.40 | 
C=CCc1c(O)ccc2nc3c(c(CC)c12)Cn1c-3cc2c(c1=O)COC(=O)[C@]2(O)CC | 7.85 | 5.56 | TWI (Mus musculus [9]): 81.2%; BWC (Mus musculus [10]): 9%; TW (Mus musculus [11]): 0.62; Lethal toxicity [12]: 0

— ChEMBL document CHEMBL1143521, “Synthesis and antitumor activity of 7-ethyl-9-alkyl derivatives of camptothecin” (Bioorg Med Chem Lett, 2005)
